According to patent US20100249179A1, “Farnesoid X Receptor Agonists” (SMITHKLINE BEECHAM CORPORATION, priority 2007, published 2010):

Target: T1, Human FXRα Ligand Binding Domain (Homo sapiens, UniProt Q96RI1)
T1 construct: polyhistidine (pRSET-A vector leader) (N); made in house; host or cells: E. coli BL21 (DE3), pRSET-A vector
T1 sequence (Q96RI1 237-472 isoform Q96RI1-2): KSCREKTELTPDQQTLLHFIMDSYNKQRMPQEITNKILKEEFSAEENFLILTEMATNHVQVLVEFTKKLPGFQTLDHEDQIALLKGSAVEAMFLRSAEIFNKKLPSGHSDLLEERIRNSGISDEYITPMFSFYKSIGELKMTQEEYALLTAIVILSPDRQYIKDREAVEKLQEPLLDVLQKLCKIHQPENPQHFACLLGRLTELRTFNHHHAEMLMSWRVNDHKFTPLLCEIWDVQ
Test: FXR Cofactor Binding Assay (time resolved fluorescence, SRC-1 peptide recruitment)
Format: biochemical
Conditions: class symbols; read-out: Activity (pEC50) (converted)
From the text: Determination of a ligand mediated cofactor peptide interaction to quantify ligand binding to the nuclear receptor Farnesoid X Receptor (FXR). The method measures the ability of putative ligands to modulate the interaction between the purified bacterial expressed FXRα ligand binding domain (LBD) and a synthetic biotinylated peptide based on residues 676-700 of steroid receptor coactivator-1 (SRC-1) (LXXLL-containing domain-2 where L is the amino acid leucine and X indicates any other amino acid (LCD2), 676-700). The sequence of the SRC-1 peptide used is as published in Iannone, M. A., et al., 2001 Cytometry 44:326-337 where the N-terminus was biotinylated (B) and the C-terminus was amidated. Detection of the associated complex was measured by time resolved fluorescence (TRF). The purified LBD of FXR was labeled with biotin then mixed with stoichiometric amounts of allophycocyanin (APC) labeled streptavidin (Molecular Probes). The biotinylated peptide was then mixed with a ½ stoichiometric amount of europium labeled streptavidin (Wallac Inc). Each was then blocked with a 5 fold excess of biotin and allowed to equilibrate for 15 min. Equimolar amounts of receptor and peptide were mixed together and were allowed to equilibrate for at least 30 min prior to the addition to either a variable or constant concentrations of the sample for which the affinity is to be determined. After equilibration, the time-resolved fluorescent signal was quantitated using a fluorescent plate reader. The affinity of the test compound was estimated from a plot of fluorescence versus concentration of test compound added.
A basal level of FXR: peptide formation is observed in the absence of added ligand. Ligands that promote the complex formation induce a concentration-dependent increase in time-resolved fluorescent signal. Compounds which bind equally well to both monomeric FXR and to the FXR: peptide complex would be expected to give no change in signal, whereas ligands which bind preferentially to the monomeric receptor would be expected to induce a concentration-dependent decrease in the observed signal.
Advance Preparation: Human Farnesoid X Receptor α Ligand Binding Domain Human FXRα Ligand Binding Domain (FXRα LBD) was expressed in E. coli strain BL21 (DE3) as an amino-terminal polyhistidine tagged fusion protein. Expression was under the control of an isopropyl-β-D-thiogalactopyranoside (IPTG) inducible T7 promoter. DNA encoding this recombinant protein is subcloned into the pRSET-A expression vector (Invitrogen). The coding sequence of Human FXRα LBD was derived from Genbank accession number U 68233 (amino acids 237 to 472).
Ten-liter fermentation batches were grown in Rich PO4 media with 0.1 mg/mL Ampicillin at 25° C. for 12 hours, cooled to 9° C. and held at that temperature for 36 hours to a density of OD600=14. At this cell density, 0.25 mM IPTG is added and induction proceeded for 24 hours at 9° C., to a final OD600=16. Cells are harvested by centrifugation (20 minutes, 3500× gravity, 4° C.), and concentrated cell slurries were stored in phosphate buffered saline (PBS) at […].
Routinely, 30-40 g cell paste (equivalent to 2-3 liters of the fermentation batch) was resuspended in 200-250 mL Tris buffered saline (TBS), pH 7.2 (25 mM Tris-hydroxymethylamino methane (Tris), 150 mM sodium chloride). Cells were lysed by passing 3 times through a French Press and cell debris was removed by centrifugation (30 minutes, 20,000× gravity, 4° C.). The cleared supernatant was filtered through course pre-filters, and TBS, pH 7.2, 500 mM imidazole was added to obtain a final imidazole concentration of 50 mM. This lysate was loaded onto a column (6×8 cm) packed with Sepharose [Ni^++ charged] Chelation resin (Pharmacia) and pre-equilibrated with TBS pH 7.2/50 mM imidazole. After washing to baseline absorbance with equilibration buffer, the column was washed with one column volume of TBS pH 7.2 containing 90 mM imidazole. […]

Row | Compound | EC50
1 | CC(C)c1onc(-c2c(Cl)cccc2Cl)c1COc1ccc(-c2ccc3cc(C(=O)O)[nH]c3c2)cc1 [Example 5, 6-[4-({[3-(2,6-Dichlorophenyl)-5-(1-methylethyl)-4-isoxazolyl]methyl}oxy)phenyl]-1H-indole-2-carboxylic Acid] | 0.102 to 1 µM
2 | CC(C)c1onc(-c2c(Cl)cccc2Cl)c1COc1ccc(-c2ccc3c(C(=O)O)c[nH]c3c2)cn1 [Example 13, 6-[6-({[3-(2,6-Dichlorophenyl)-5-(1-methylethyl)-4-isoxazolyl]methyl}oxy)-3-pyridinyl]-1H-indole-3-carboxylic Acid] | 0.102 to 1 µM
3 | CC(C)c1onc(-c2c(Cl)cccc2Cl)c1COc1ccc(-c2ccc3c(c2)CC(C(=O)O)C3)cc1 (centres unmarked) [Example 6, 5-[4-({[3-(2,6-Dichlorophenyl)-5-(1-methylethyl)-4-isoxazolyl]methyl}oxy)phenyl]-2,3-dihydro-1H-indene-2-carboxylic Acid] | 0.102 to 1 µM
4 | CC(C)c1onc(-c2c(Cl)cccc2Cl)c1COc1ccc(-c2ccc3c(c2)CCC3(O)C(=O)O)cc1 (centres unmarked) [Example 7, 5-[4-({[3-(2,6-Dichlorophenyl)-5-(1-methylethyl)-4-isoxazolyl]methyl}oxy)phenyl]-1-hydroxy-2,3-dihydro-1H-indene-1-carboxylic Acid] | 0.102 to 1 µM
5 | CC(C)c1onc(-c2c(Cl)cccc2Cl)c1COc1ccc(-c2ccc3c(C(=O)O)cc(=O)oc3c2)cc1 [Example 15, 7-[4-({[3-(2,6-Dichlorophenyl)-5-(1-methylethyl)-4-isoxazolyl]methyl}oxy)phenyl]-2-oxo-2H-chromene-4-carboxylic Acid] | 0.102 to 1 µM
6 | CC(C)c1onc(-c2c(Cl)cccc2Cl)c1COc1ccc(-c2ccc3c(C(=O)O)csc3c2)cc1 [Example 11, 6-[4-({[3-(2,6-Dichlorophenyl)-5-(1-methylethyl)-4-isoxazolyl]methyl}oxy)phenyl]-1-benzothiophene-3-carboxylic Acid] | < 0.1 µM
7 | CC(C)c1onc(-c2c(Cl)cccc2Cl)c1COc1ccc(-c2csc3ccc(C(=O)O)cc23)cc1 [Example 9, 3-[4-({[3-(2,6-Dichlorophenyl)-5-(1-methylethyl)-4-isoxazolyl]methyl}oxy)phenyl]-1-benzothiophene-5-carboxylic Acid] | 1.02 to 10 µM
8 | CC(C)c1onc(-c2c(Cl)cccc2Cl)c1COc1ccc(-c2ccc3c(C(=O)O)c[nH]c3c2)cc1 [Example 3, 6-[4-({[3-(2,6-Dichlorophenyl)-5-(1-methylethyl)-4-isoxazolyl]methyl}oxy)phenyl]-1H-indole-3-carboxylic Acid] | < 0.1 µM
9 | CC(C)c1onc(-c2c(Cl)cccc2Cl)c1COc1ccc(-c2ccc3sc(C(=O)O)cc3c2)cc1 [Example 12, 5-[4-({[3-(2,6-Dichlorophenyl)-5-(1-methylethyl)-4-isoxazolyl]methyl}oxy)phenyl]-1-benzothiophene-2-carboxylic Acid] | 0.102 to 1 µM
10 | CC(C)c1onc(-c2c(Cl)cccc2Cl)c1COc1ccc(Sc2cccc3sc(C(=O)O)cc23)cc1 [Example 19, 4-{[4-({[3-(2,6-Dichlorophenyl)-5-(1-methylethyl)-4-isoxazolyl]methyl}oxy)phenyl]thio}-1-benzothiophene-2-carboxylic Acid] | 0.102 to 1 µM
11 | CC(C)c1onc(-c2c(Cl)cccc2Cl)c1COc1ccc(Nc2cccc3ccc(C(=O)O)cc23)cc1 [Example 18, 8-{[4-({[3-(2,6-Dichlorophenyl)-5-(1-methylethyl)-4-isoxazolyl]methyl}oxy)phenyl]amino}-2-naphthalenecarboxylic Acid] | 0.102 to 1 µM
12 | CC(C)c1onc(-c2c(Cl)cccc2Cl)c1COc1ccc(-c2ccc3c(=O)cc(C(=O)O)oc3c2)cc1 [Example 16, 7-[4-({[3-(2,6-Dichlorophenyl)-5-(1-methylethyl)-4-isoxazolyl]methyl}oxy)phenyl]-4-oxo-4H-chromene-2-carboxylic Acid] | 0.102 to 1 µM
13 | CC(C)c1onc(-c2c(Cl)cccc2Cl)c1COc1ccc(-c2ccc3c(c2)C(C(=O)O)CC3)cc1 (centres unmarked) [Example 2, 6-[4-({[3-(2,6-Dichlorophenyl)-5-(1-methylethyl)-4-isoxazolyl]methyl}oxy)phenyl]-2,3-dihydro-1H-indene-1-carboxylic Acid] | 0.102 to 1 µM
14 | CC(C)c1onc(-c2c(Cl)cccc2Cl)c1COc1ccc(-c2nc3cccc(C(=O)O)c3[nH]2)cc1 [Example 21, 2-[4-({[3-(2,6-Dichlorophenyl)-5-(1-methylethyl)-4-isoxazolyl]methyl}oxy)phenyl]-1H-benzimidazole-4-carboxylic Acid] | 1.02 to 10 µM
15 | CC(C)c1onc(-c2c(Cl)cccc2Cl)c1COc1ccc(-c2ccc3c(C(=O)O)n[nH]c3c2)cc1 [Example 8, 6-[4-({[3-(2,6-Dichlorophenyl)-5-(1-methylethyl)-4-isoxazolyl]methyl}oxy)phenyl]-1H-indazole-3-carboxylic Acid] | 1.02 to 10 µM
16 | CC(C)c1onc(-c2c(Cl)cccc2Cl)c1COc1ccc(-c2ccc3sc(C(=O)O)cc3n2)cc1 [Example 10, 5-[4-({[3-(2,6-Dichlorophenyl)-5-(1-methylethyl)-4-isoxazolyl]methyl}oxy)phenyl]thieno[3,2-b]pyridine-2-carboxylic Acid] | 0.102 to 1 µM
17 | CC(C)c1onc(-c2c(Cl)cccc2Cl)c1COc1ccc(-c2ccc3c(c2)CCCC3C(=O)O)cc1 (centres unmarked) [Example 17, 6-[4-({[3-(2,6-Dichlorophenyl)-5-(1-methylethyl)-4-isoxazolyl]methyl}oxy)phenyl]-1,2,3,4-tetrahydro-1-naphthalenecarboxylic Acid] | 0.102 to 1 µM
18 | CC(C)c1onc(-c2c(Cl)cccc2Cl)c1COc1ccc(-c2ccc3oc(C(=O)O)cc3c2)cc1 [Example 4, 5-[4-({[3-(2,6-Dichlorophenyl)-5-(1-methylethyl)-4-isoxazolyl]methyl}oxy)phenyl]-1-benzofuran-2-carboxylic Acid] | < 0.1 µM
19 | CC(C)c1onc(-c2c(Cl)cccc2Cl)c1COc1ccc(-c2ccc3oc(C(=O)O)cc(=O)c3c2)cc1 [Example 14, 6-[4-({[3-(2,6-Dichlorophenyl)-5-(1-methylethyl)-4-isoxazolyl]methyl}oxy)phenyl]-4-oxo-4H-chromene-2-carboxylic Acid] | < 0.1 µM
20 | CC(C)c1onc(-c2c(Cl)cccc2Cl)c1COc1ccc(-c2ccc3[nH]c(C(=O)O)cc3c2)cc1 [Example 1, 5-[4-({[3-(2,6-Dichlorophenyl)-5-(1-methylethyl)-4-isoxazolyl]methyl}oxy)phenyl]-1H-indole-2-carboxylic Acid] | < 0.1 µM

Same assay, conditions: given as numeric bound; read-out: Activity (pEC50) (converted)

Row | Compound | EC50
21 | CCOC(=O)c1noc2cc(-c3ccc(OCc4c(-c5c(Cl)cccc5Cl)noc4C(C)C)cc3)ccc12 [Example 20, Ethyl 6-[4-({[3-(2,6-dichlorophenyl)-5-(1-methylethyl)-4-isoxazolyl]methyl}oxy)phenyl]-1,2-benzisoxazole-3-carboxylate] | > 20 µM

Test system: cultured HSCs
Test: not given
Conditions: cited from earlier work

Row | Compound | expression of fibrotic markers such as α-smooth muscle actin and α1(I) collagen
22 | CC[C@H]1[C@@H](O)[C@@H]2[C@H](CC[C@]3(C)[C@@H]([C@H](C)CCC(=O)O)CC[C@@H]23)[C@@]2(C)CC[C@@H](O)C[C@@H]12 [Example 6EtCDCA, 6-ethyl-chenodeoxycholic acid] | decreased

Test system: rodent models of hepatic fibrosis
Test: not given
Conditions: multiple rodent models; cited from earlier work

Row | Compound | hepatic fibrosis
23 | CC[C@H]1[C@@H](O)[C@@H]2[C@H](CC[C@]3(C)[C@@H]([C@H](C)CCC(=O)O)CC[C@@H]23)[C@@]2(C)CC[C@@H](O)C[C@@H]12 [Example 6EtCDCA, 6-ethyl-chenodeoxycholic acid] | prevent development and promote resolution
